“And” between values parts separate entries of the source, which are not always exact repeats. Equal values may be shown once.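 Five compound concentrations were applied to cells in 96-well plates for 48 hours; endpoints were derived by simple linear interpolation of the resulting dose-response curve. GI50 = concentration required for 50% inhibition of growth. At the TGI there is no net growth.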

Common to all, as to experiment: NCI-60 cell line screen, 48 h
The subject of assay [1] is NCI-H23 lung.
Assay [2] concerns SF-268 CNS.
The subject of assay [3] is OVCAR-4 ovarian.
The subject of assay [4] is LOX IMVI melanoma.
In assay [5] the test system is EKVX NSCLC.
In assay [6] the test system is HOP-62 NSCLC.
The test system of assay [7] is SN12C renal.
For assay [8], the system named is UO-31 renal.
Assay [9] deals with 786-0 renal.
Assay [10] concerns HCT-116 colon.

On to `O=c1c2cccnc2ncn1CCN1CCCCC1`, for which the TGI in [1], in [2], in assay [3], in [4], in [5] and in assay [6] was over 100 µM in each case. The TGI in [7], in assay [8], in [9] and in [10] was over 100 µM in each case.
Take `CC(C)[C@@H]1NC(=O)[C@]2(C)CSC(=N2)c2ccnc(c2)CNC(=O)C[C@@H](/C=C/CCS)OC1=O`: the GI50 in assay [1] is 0.303 µM; in assay [2], 0.421 µM; in [3], 1.41 µM; in assay [4] it was 0.208 µM; in assay [5], 0.234 µM; in assay [6] it was 0.0525 µM. Also, the GI50 was 0.711 µM in assay [7], 1.56 µM in assay [8], 0.911 µM in [9] and 0.115 µM in [10]. For the same compound, the TGI is over 31.4 µM in [1]; over 100 µM in [2]; over 100 µM in assay [3]; 0.588 µM in [4]; over 100 µM in assay [5]; over 100 µM in [7]. For the same compound, the TGI in assay [8] is 23.1 µM; in assay [9] it was over 28 µM; in assay [10], 1.09 µM.
For the compound `CC(=O)OCc1ccc2c(c1)C(O)NC(=O)O2` (stereo unspecified), the TGI in assay [1], in assay [2], in assay [3], in [4], in assay [5] and in assay [6] was over 100 µM each time. Also, the TGI in assay [7], in assay [8], in assay [9] and in assay [10] was over 100 µM throughout.
Turning to `COc1c2ccccc2c(OC)c2[nH]c(=O)ccc12`, the GI50 in [1] is 0.925 µM; in assay [2], 9.51 µM; in [3], 11.1 µM; in assay [4], 1.84 µM; in assay [5], 2.83 µM; in [6], 2.01 µM. Besides, the GI50 was 2.13 µM in assay [7], 8.13 µM in assay [8], 56.1 µM in [9] and 4.98 µM in assay [10]. Moreover, the TGI in assay [1] was 3.47 µM; in assay [2], over 100 µM; in assay [3] it was over 100 µM; in assay [4] it was over 23 µM; in assay [5], over 100 µM; in assay [6], 3.72 µM. Besides, the TGI in assay [7] is over 21.2 µM; in assay [8], 97.3 µM; in assay [9] it was over 100 µM; in [10], over 100 µM.
As to `Nc1nc2[nH]cc(CCc3ccc(C(=O)N[C@@H](CCC(=O)O)C(=O)O)cc3)c2c(=O)[nH]1`, the TGI in assay [1], in assay [2], in assay [3], in assay [4], in [5] and in assay [6] was over 100 µM each time. In addition, the TGI in assay [7], in assay [8], in [9] and in assay [10] was over 100 µM in each case. Also, the GI50 in assay [2] is 0.219 µM; in [4], 0.111 µM; in assay [6], 0.724 µM; in assay [7], 0.737 µM; in assay [8], 0.19 µM; in assay [9], 0.0611 µM. The GI50 in assay [10] is 0.127 µM.
With `O=[N+]([O-])c1cc([N+](=O)[O-])c(C(F)(F)F)cc1NN=C(c1ccc(O)cc1)c1ccc(O)cc1`, the GI50 in [1] is 4.23 µM; in assay [2], 2.63 µM; in assay [3], 3.25 µM; in assay [4] it was 1.57 µM; in assay [5] it was 2.75 µM; in assay [6], 3.51 µM. The GI50 was 3.3 µM in assay [7], 3.15 µM in assay [8], 2.67 µM in [9] and 2.67 µM in assay [10]. Also, the TGI in [1] came to 31 µM; in assay [2], 7.66 µM; in [3], 19.2 µM; in [4] it was 3.21 µM; in [5], 14.6 µM; in assay [6] it was 35.8 µM. Besides, the TGI was determined as 13.4 µM in [7], 13.3 µM in assay [8], 9.54 µM in [9] and 11.9 µM in assay [10].
Consider `COc1ccc(C(c2cc(OC)c(OC)c(OC)c2)n2cncn2)cc1O` (stereo unspecified), for which the GI50 is 0.977 µM in [1]; 0.649 µM in assay [2]; 3.02 µM in assay [3]; 0.523 µM in assay [4]; 2.24 µM in assay [5]; 0.514 µM in assay [6]. For the same compound, the GI50 was 0.853 µM in assay [7], 0.903 µM in [8], 0.474 µM in assay [9] and 0.448 µM in [10]. Also, the TGI in [1], in assay [2], in assay [3], in assay [4], in [5] and in assay [6] was over 100 µM in each case. Moreover, the TGI in assay [7], in [8], in assay [9] and in [10] was over 100 µM throughout.
For `Fc1cc(-c2nnc3n2N=C(c2ccc(Cl)cc2)CS3)c(Cl)cc1Cl`, the GI50 in [1] was 6.67 µM; in assay [2] it was 13.9 µM; in assay [3] it was 7.91 µM; in assay [4], 1.77 µM; in assay [5], 23.5 µM; in assay [6], 20.1 µM. Also, the GI50 is 3.85 µM in assay [7], 2.99 µM in assay [8], 2.08 µM in assay [9] and 2.36 µM in [10]. The TGI is 20.8 µM in assay [1]; 33.1 µM in assay [2]; 32.8 µM in assay [3]; 3.86 µM in [4]; 48.1 µM in assay [5]; 36.4 µM in [6]. For the same compound, the TGI in assay [7] is 16.8 µM; in assay [8], over 20.5 µM; in assay [9] it was 3.55 µM; in assay [10], 5.85 µM.
Turning to `CCOc1ccc(NC2=CC(=O)C(=O)c3ccccc32)cc1`, the TGI stood at 3.93 µM in assay [1]; 22.4 µM in assay [2]; 7.8 µM in assay [3]; 2.77 µM in assay [4]; 30.9 µM in [5]; 12 µM in assay [6]. For the same compound, the TGI turned out to be 3.31 µM in [7], 13.5 µM in assay [8], 13.7 µM in assay [9] and 10.1 µM in assay [10].
As for `c1ccc(-c2n(Cc3ccc4ccccc4n3)cc[n+]2Cc2ccc3ccccc3c2)cc1`, the GI50 is 0.731 µM in assay [1]; 1.91 µM in [2]; 0.366 µM in assay [3]; 0.955 µM in [4]; 2.33 µM in [5]; 2.01 µM in assay [6]. The GI50 is 1.44 µM in assay [7], 2.93 µM in assay [8], 2.24 µM in assay [9] and 1.24 µM in [10]. Also, the TGI is 4.87 µM in [1]; 5.5 µM in assay [2]; 6.13 µM in assay [3]; 2.31 µM in assay [4]; 12.8 µM in assay [5]; 6.13 µM in [6]. The TGI in assay [7] was determined as 4.36 µM; in assay [8] it was 13.2 µM; in assay [9] it was 6.12 µM; in assay [10], 3.37 µM.
In the case of `CCNC(=O)C#Cc1ccc2c(C(=Nc3ccc(CN(C)C)cc3)c3ccccc3)c(O)[nH]c2c1`, the GI50 was 0.0614 µM in assay [1]; 1.35 µM in assay [2]; 0.61 µM in assay [3]; 0.0067 µM in assay [4]; 0.47 µM in assay [5]; 0.109 µM in [6]. For the same compound, the GI50 in assay [7] is 0.0671 µM; in assay [8], 0.0811 µM; in [9], 0.356 µM; in assay [10] it was 0.0147 µM. Also, the TGI in [1] is over 4.28 µM; in assay [2], over 9.48 µM; in assay [3], 7.63 µM; in assay [4], 0.163 µM; in assay [5], over 10 µM; in assay [6], over 3.76 µM. The TGI in assay [7] was determined as 1.59 µM; in assay [8], 1.34 µM; in assay [9] it was 2 µM; in assay [10], 1.07 µM.
For the compound `Cc1[cH-]c(=O)n(-c2ccccc2)n1.[Au+].[Au].c1ccc([PH+](c2ccccc2)c2ccccc2)cc1.c1ccc([PH+](c2ccccc2)c2ccccc2)cc1`, the GI50 in [1] is 9.75 µM; in assay [2], 7.14 µM; in assay [3], 32.2 µM; in assay [4] it was 18 µM; in assay [5] it was 23 µM; in assay [6], 23.7 µM. Moreover, the GI50 in assay [7] is 37.5 µM; in assay [8] it was 11.6 µM; in [9], 1.6 µM and 4.03 µM; in assay [10], 20.2 µM. Further, the TGI in [1] is 46.1 µM; in assay [2], 31.9 µM; in assay [3] it was over 100 µM; in [4] it was 46.8 µM; in assay [5] it was 79.7 µM; in assay [6] it was 54 µM. Also, the TGI in assay [7] was over 100 µM; in [8], over 100 µM; in [9], 5.53 µM and 16.6 µM; in assay [10], 38.9 µM.
`CCOC(=O)n1cc(C2=C(c3ccc(OC)c(OC)c3)COC2=O)c2ccccc21`: the GI50 in assay [1] was 0.157 µM; in [2], 0.262 µM; in assay [3] it was 2.36 µM; in assay [4] it was 0.0623 µM; in assay [5], 0.0938 µM; in [6] it was 0.075 µM. In addition, the GI50 was 0.0681 µM in [7], 0.0632 µM in assay [8], 0.0625 µM in [9] and 0.0482 µM in assay [10]. Moreover, the TGI in assay [1], in assay [2], in assay [3], in assay [4], in assay [5] and in assay [6] was over 100 µM throughout. Moreover, the TGI in assay [7], in assay [8], in [9] and in assay [10] was over 100 µM throughout.
With `COc1ccc2ncnc(Nc3ccc(OCc4ccccc4)cc3)c2c1`, the GI50 in assay [1] is 8.48 µM; in [2], 13.9 µM; in assay [3], 7.38 µM; in assay [4] it was 7.85 µM; in [5] it was 2.25 µM; in [6], 10.6 µM. For the same compound, the GI50 was 9.14 µM in [7], 3.62 µM in [8], 4.76 µM in assay [9] and 8.35 µM in assay [10]. In addition, the TGI is over 25 µM in assay [1]; over 25 µM in [2]; over 25 µM in [3]; over 25 µM in assay [4]; 12.9 µM in assay [5]; over 25 µM in assay [6]. Besides, the TGI in assay [7] was over 25 µM; in [8], over 17 µM; in [9], 10.9 µM; in assay [10] it was over 25 µM.
Turning to `O=C(/C=C/c1c(O)ccc2ccccc12)c1ccc([N+](=O)[O-])cc1`, the TGI in [1] was 60.3 µM; in assay [2] it was over 100 µM; in assay [3] it was 36 µM; in assay [4], 33.4 µM; in [5], over 100 µM; in assay [6] it was over 100 µM. Moreover, the TGI was 39.7 µM in assay [7], over 61.7 µM in assay [8], over 55.6 µM in assay [9] and 37.4 µM in [10].
With `CC(=C(c1ccc(OCCN2CCCCC2)cc1)c1ccc(OCCN2CCCCC2)cc1)c1ccc(Cl)cc1`, the GI50 in assay [1] was 0.466 µM; in [2], 0.436 µM; in assay [3], 0.46 µM; in assay [4], 0.406 µM; in assay [5], 0.433 µM; in [6] it was 0.439 µM. Besides, the GI50 was 0.414 µM in assay [7], 0.354 µM in assay [8], 0.419 µM in [9] and 0.39 µM in assay [10]. Also, the TGI amounted to 0.913 µM in assay [1]; 0.873 µM in assay [2]; 0.893 µM in [3]; 0.754 µM in assay [4]; 0.857 µM in [5]; 0.888 µM in [6]. Also, the TGI in [7] was 0.785 µM; in [8], 0.681 µM; in [9] it was 0.805 µM; in assay [10], 0.743 µM.
In the case of `CCOC(=O)C1Sc2ccccc2N=C1C` (stereo unspecified), the TGI in assay [1], in assay [2], in assay [3], in [4], in assay [5] and in [6] was over 100 µM each time. Further, the TGI in assay [7], in [8], in assay [9] and in assay [10] was over 100 µM throughout.

For the origin of these results see PubChem BioAssay (NCI).
